# Patent US20250066380A1, “NOVEL FURANO-NAPHTHOQUINONE AND NOVEL PYRAZINONE COMPOUNDS FROM AMYCOLATOPSIS AND ACTIVITIES THEREOF” (COUNCIL OF SCIENTIFIC AND INDUSTRIAL RESEARCH (AN INDIAN …, priority 2022, published 2025)
# Like-named read-outs stand apart in the source and are kept apart here.
# Columns and labels:
# [1] = system: blood-stage Plasmodium falciparum (3D7 strain); assay: Antimalarial activity, SYBR green staining-based parasitemia determination; format: cell-based; details: P. falciparum 3D7
# Experimental: The antimalarial activity was carried out on blood-stage Plasmodium falciparum (3D7 strain) with various concentrations ranging from 10 μM to 0.01 μM by 5 SYBR green staining-based parasitemia determination. Parasite cultures were incubated with the test compounds for 60 h under optimal growth conditions, following which the cells were lysed with 0.01% Triton X and stained with SYBR Green I nucleic acid stain (Thermo Fisher Scientific) to estimate parasite growth and inhibition. Fluorescence readings were obtained with a GloMax plate reader (Promega) after 15 min incubation in the dark and raw fluorescence readings were processed. The % growth inhibition values were estimated from comparisons between test and control samples.
# [2] = system: Bacillus subtilis ATCC 6633; assay: MIC, CLSI broth microdilution; format: cell-based; details: Mueller Hinton broth, 18 hours at 37° C., highest concentration 128 μg/ml
# Experimental: (§1) The MICs of the purified compounds were done according to CLSI guidelines using Mueller Hinton broth (Hi media) against panel of six Gram positive bacteria S.aureus, S.epidermidis, B.cereus, B.subtilis, M.luteus and L.monocytogenes, two Gram negative bacteria E.coli and P.aeruginosa, and four MRSA (Methicillin resistant S.aureus) clinical strain. The stock solution of compounds were made at 10 mg/ml in DMSO. The test compounds (highest concentration 128 μg/ml) were serially diluted in 50 μl of Mueller Hinton broth and 50 μl of bacterial suspension were added to reach the final desired cell density of 5×10^5 CFU ml^−1 in each well of 96 well microtiter plate except the media control. The medium, untreated culture, DMSO, ampicillin and kanamycin were used as controls. […] The MICs were defined as the lowest concentration that inhibited visible growth of bacteria.
# [3] = system: Listeria monocytogenes ATCC 19111; assay: MIC, CLSI broth microdilution; format: cell-based; details: Mueller Hinton broth, 18 hours at 37° C., highest concentration 128 μg/ml
# Experimental: as §1
# [4] = system: Bacillus cereus ATCC 11778; assay: MIC, CLSI broth microdilution; format: cell-based; details: Mueller Hinton broth, 18 hours at 37° C., highest concentration 128 μg/ml
# Experimental: as §1
# [5] = system: Staphylococcus epidermidis ATCC; assay: MIC, CLSI broth microdilution; format: cell-based; details: Mueller Hinton broth, 18 hours at 37° C., highest concentration 128 μg/ml
# Experimental: as §1
# [6] = system: Staphylococcus aureus ATCC 9144; assay: MIC, CLSI broth microdilution; format: cell-based; details: Mueller Hinton broth, 18 hours at 37° C., highest concentration 128 μg/ml
# Experimental: as §1
# [7] = system: Micrococcus luteus ATCC 9341; assay: MIC, CLSI broth microdilution; format: cell-based; details: Mueller Hinton broth, 18 hours at 37° C., highest concentration 128 μg/ml
# Experimental: as §1
# [8] = system: MDA-MB-231, A549 and HeLa; assay: MTT cell viability assay, tested cancer cell lines; format: cell-based
# Experimental: (§2) MTT assay was used for the study of cell viability, which measured cellular metabolic activity based on the ability of nicotinamide adenine dinucleotide phosphate (NADPH) dependent oxidoreductase enzymes to reduce the yellow tetrazolium salt 3-[4,5-dimethylthiazole-2-yl]-2,5-diphenyltetrazolium bromide (MTT) to purple formazan crystals. The cell lines used for the study were A549 (lung cancer), HeLa (Cervical cancer) and MDA MB-231 (Breast cancer), which were seeded with a density of 10,000 cells/well into 96-well plates and incubated at 37° C. with 5% CO2 for 20 hours. The compounds with different concentrations were used to treat the cells for 24 hours. The medium was replaced with 100 μL of MTT solution (0.5 mg/mL in DMEM) and then incubated for 4 h at 37° C. in dark. Subsequently, MTT solution was removed and the formazan crystals were solubilized by addition of 100 μl DMSO. The optical density was measured at 570 nm by a Biotek synergy H1 microplate reader.
# MRSA_6B = assay: MIC, CLSI broth microdilution, MRSA clinical strain; format: cell-based, Methicillin resistant S.aureus; details: Mueller Hinton broth, 18 hours at 37° C., highest concentration 128 μg/ml
# Experimental: as §1
# MRSA_9B = assay: as above; format: cell-based, Methicillin resistant S.aureus; details: Mueller Hinton broth, 18 hours at 37° C., highest concentration 128 μg/ml
# Experimental: as §1
# MRSA_3B = assay: as above; format: cell-based, Methicillin resistant S.aureus; details: Mueller Hinton broth, 18 hours at 37° C., highest concentration 128 μg/ml
# Experimental: as §1
# MRSA_10B = assay: as above; format: cell-based, Methicillin resistant S.aureus; details: Mueller Hinton broth, 18 hours at 37° C., highest concentration 128 μg/ml
# Experimental: as §1
# [9] = system: Mycobacterium smegmatis ATCC 607; assay: MIC, Middlebrook 7H9 medium; format: cell-based; details: for MIC: Middlebrook 7H9 medium, 48 hours at 37° C., highest concentration 128 μg/ml
# [10] = system: resistant clinical bacterial strains; assay: MIC, resistant clinical bacterial strains; format: cell-based, MRSA (Methicillin resistant S.aureus)
# Experimental: as §1
# Gram-positive bacteria = assay: MIC, panel of Gram positive bacteria; format: cell-based
# Experimental: as §1
# A549 (lung cancer) = assay: MTT cell viability assay; format: cell-based; details: Homo sapiens, A549, 24 hours treatment
# Experimental: as §2
# HeLa (Cervical cancer) = assay: MTT cell viability assay; format: cell-based; details: Homo sapiens, 24 hours treatment
# Experimental: as §2
# [11] = system: MDA MB-231 (Breast cancer); assay: MTT cell viability assay; format: cell-based; details: Homo sapiens, MDA-MB-231, 24 hours treatment
# Experimental: as §2
# [12] = system: Pseudomonas aeruginosa ATCC 9027; assay: MIC, CLSI broth microdilution; format: cell-based; details: Mueller Hinton broth, 18 hours at 37° C., highest concentration 128 μg/ml
# Experimental: as §1
# [13] = system: Escherichia coli ATCC 8739; assay: MIC, CLSI broth microdilution; format: cell-based; details: ATCC8739, Mueller Hinton broth, 18 hours at 37° C., highest concentration 128 μg/ml
# Experimental: as §1
# [14] = Bacillus subtilis, ATCC6633, read-out: MIC
# [15] = Listeria monocytogenes, ATCC19111, read-out: MIC
# [16] = Bacillus cereus, ATCC11778, read-out: MIC
# [17] = Staphylococcus epidermidis, read-out: MIC
# [18] = Staphylococcus aureus, ATCC9144, read-out: MIC
# [19] = Micrococcus luteus, ATCC9341, read-out: MIC
# [20] = Staphylococcus aureus, read-out: MIC
# [21] = Mycolicibacterium smegmatis, ATCC607, read-out: MIC
"MIC [2, 14] [µg/mL]","MIC [3, 15] [µg/mL]","MIC [4, 16] [µg/mL]","MIC [5, 17] [µg/mL]","MIC [6, 18] [µg/mL]","MIC [7, 19] [µg/mL]",MIC (MRSA_6B; [20]) [µg/mL],MIC (MRSA_9B; [20]) [µg/mL],MIC (MRSA_3B; [20]) [µg/mL],MIC (MRSA_10B; [20]) [µg/mL],"MIC [9, 21] [µg/mL]",IC50 (A549 (lung cancer)) [µg/mL],IC50 (HeLa (Cervical cancer)) [µg/mL],IC50 [11] [µg/mL],SMILES,antibacterial activity against Gram-positive bacteria (Gram-positive bacteria),antimalarial activity [1],anticancer activity [8],other results
4,2,8,2,2,8,4,4,4,4,64,2.14,3.53,1.79,CC1OC2OC3C4=C(OC3(C)C12O)C(=O)c1c(O)cccc1C4=O (stereo not drawn) [Compound C-1],good antibacterial activity,–,–,"EC50 ([1]; Plasmodium falciparum, read-out: antimalarial activity (bound)): < 1000 nM; IC50 ([8]; read-out: IC50 value range over the tested cancer cell lines): 1.79 to 8.82 µg/mL; activity against Mycobacterium smegmatis [9]: weakly active; activity against the resistant clinical bacterial strains [10]: active"
–,–,–,–,–,–,–,–,–,–,–,44.9,36,19.1,CC1OC2OC3C(C)(OC4(O)C(=O)c5c(O)cccc5C(=O)C34O)C12O (stereo not drawn) [Compound C-2],weakly active,moderately active,moderate activity,–
128,128,128,64,128,64,128,128,128,128,–,40.2,15.4,14.1,CC(C)Cc1nc(C(C)C(=O)O)c(C(C)C)n(O)c1=O (stereo not drawn) [Compound C-4],weakly active,moderately active,moderate activity,–

# The remaining lines, values behind:
SMILES,"MIC [2, 14] [µg/mL]","MIC [3, 15] [µg/mL]","MIC [4, 16] [µg/mL]","MIC [5, 17] [µg/mL]","MIC [6, 18] [µg/mL]","MIC [7, 19] [µg/mL]",MIC (MRSA_6B; [20]) [µg/mL],MIC (MRSA_9B; [20]) [µg/mL],MIC (MRSA_3B; [20]) [µg/mL],MIC (MRSA_10B; [20]) [µg/mL],"MIC [9, 21] [µg/mL]",IC50 (A549 (lung cancer)) [µg/mL],IC50 (HeLa (Cervical cancer)) [µg/mL],IC50 [11] [µg/mL],antibacterial activity against Gram-positive bacteria (Gram-positive bacteria),antimalarial activity [1],anticancer activity [8],other results
"CC1(C)S[C@@H]2[C@H](NC(=O)[C@H](N)c3ccccc3)C(=O)N2[C@H]1C(=O)O [Ampicilli, ampicillin, reference compound]",–,–,–,–,–,–,–,–,–,–,–,–,–,–,–,–,–,MIC [12]: 2 µg/mL; MIC [2]: 0.03 µg/mL; MIC [3]: 0.03 µg/mL; MIC [4]: 16 µg/mL; MIC [5]: 1 µg/mL; MIC [6]: 0.03 µg/mL; MIC [7]: 0.03 µg/mL; MIC (MRSA_6B): 8 µg/mL; MIC (MRSA_9B): 16 µg/mL; MIC (MRSA_3B): 8 µg/mL; MIC (MRSA_10B): 4 µg/mL; MIC [9]: 64 µg/mL
"NC[C@H]1O[C@H](O[C@H]2[C@H](O)[C@@H](O[C@H]3O[C@H](CO)[C@@H](O)[C@H](N)[C@H]3O)[C@H](N)C[C@@H]2N)[C@H](O)[C@@H](O)[C@@H]1O [Kanamycin, kanamycin, reference compound]",0.5,1,2,1,8,8,–,128,–,–,0.25,–,–,–,–,–,–,"MIC ([12]; Pseudomonas aeruginosa, ATCC9027, read-out: MIC): 8 µg/mL; MIC [13]: 8 µg/mL"
